Reference: ChEMBL document CHEMBL1130062 (J Med Chem, 1997)

Key:
[1] = biological target: T1, Dihydrofolate reductase (Pneumocystis carinii, UniProt P16184)
T1 sequence (P16184 whole entry): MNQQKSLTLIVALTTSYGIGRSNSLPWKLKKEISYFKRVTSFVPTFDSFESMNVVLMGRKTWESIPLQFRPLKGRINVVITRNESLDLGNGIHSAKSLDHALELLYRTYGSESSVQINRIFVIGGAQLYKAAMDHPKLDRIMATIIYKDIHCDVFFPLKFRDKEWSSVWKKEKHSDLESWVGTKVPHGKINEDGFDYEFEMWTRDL
Description: In vitro inhibitory concentration against Pneumocystis carinii dihydrofolate reductase

[2] = tested on: Pneumocystis carinii; assay: Concentration required to inhibit uptake of [3H]4-aminobenozoic acid over 24 hr against Pneumocystis carinii microorganisms extracted from immunocompromized rats.; conditions: Rattus norvegicus
[3] = Selectivity index measured as the ratio of IC50 for rat liver DHFR to IC50 for Toxoplasma gondii DHFR.
[4] = biological target: T2, Bifunctional dihydrofolate reductase-thymidylate synthase (Toxoplasma gondii, UniProt Q07422); assay: Inhibitory concentration against Toxoplasma gondii dihydrofolate reductase
T2 sequence (Q07422 whole entry): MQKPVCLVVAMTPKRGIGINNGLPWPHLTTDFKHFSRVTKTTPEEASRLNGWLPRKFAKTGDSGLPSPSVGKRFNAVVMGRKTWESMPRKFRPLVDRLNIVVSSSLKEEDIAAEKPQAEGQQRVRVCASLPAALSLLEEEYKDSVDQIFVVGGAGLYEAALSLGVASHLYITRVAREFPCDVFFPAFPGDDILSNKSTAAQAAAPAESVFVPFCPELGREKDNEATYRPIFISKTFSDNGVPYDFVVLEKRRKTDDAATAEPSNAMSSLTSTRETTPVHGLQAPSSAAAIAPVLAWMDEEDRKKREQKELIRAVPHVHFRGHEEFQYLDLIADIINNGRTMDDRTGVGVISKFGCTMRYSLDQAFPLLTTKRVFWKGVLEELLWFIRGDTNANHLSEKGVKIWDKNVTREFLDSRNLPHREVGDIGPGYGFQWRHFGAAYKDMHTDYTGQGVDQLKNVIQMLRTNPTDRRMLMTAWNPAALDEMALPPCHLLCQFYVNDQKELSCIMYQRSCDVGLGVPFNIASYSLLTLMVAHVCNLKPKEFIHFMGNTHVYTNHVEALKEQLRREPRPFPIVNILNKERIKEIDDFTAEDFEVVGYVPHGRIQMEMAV

Compound	IC50 [1] [µM]	also measured
CCc1nc(N)nc(N)c1-c1ccc(Cl)c(/N=N/N(CCO)Cc2ccccc2)c1	0.26	IC50 [2]: 11.1 µg/mL
CCc1nc(N)nc(N)c1-c1ccc(Cl)c(/N=N/N(CC)CCO)c1	11.5	
CCc1nc(N)nc(N)c1-c1ccc(Cl)c(/N=N/N(CCOC)CCOC)c1		Selectivity index [3]: 3; IC50 [4]: 8.8 µM; IC50 [2]: 30.5 µg/mL
CCc1nc(N)nc(N)c1-c1ccc(Cl)c(/N=N/N(CCO)C(C)(C)C)c1	4.9	
CCc1nc(N)nc(N)c1-c1ccc(Cl)c(/N=N/N2CCC(O)CC2)c1	3.3	
CCc1nc(N)nc(N)c1-c1ccc(Cl)c(/N=N/N(CCOC(C)=O)Cc2ccccc2)c1		IC50 [2]: 43.9 µg/mL
CCc1nc(N)nc(N)c1-c1ccc(Cl)c(/N=N/N(C)CCO)c1	3.5	
N=C(N)c1ccc(OCCCCCOc2ccc(C(=N)N)cc2)cc1		IC50 [2]: 2.5 µM
CCc1nc(N)nc(N)c1-c1ccc(Cl)c(/N=N/N(CCO)CCO)c1	0.44	IC50 [2]: 46.6 µg/mL
CCCN(CCO)/N=N/c1cc(-c2c(N)nc(N)nc2CC)ccc1Cl	2.5	
CCc1nc(N)nc(N)c1-c1ccc(N(C)Cc2ccccc2)c([N+](=O)[O-])c1		IC50 [4]: 0.091 µM
CCc1nc(N)nc(N)c1-c1ccc(Cl)c([N+](=O)[O-])c1		Selectivity index [3]: 1.1; IC50 [4]: 0.013 µM
CCc1nc(N)nc(N)c1-c1ccc(Cl)c(/N=N/N2CCOCC2)c1		IC50 [4]: 0.19 µM; IC50 [2]: 49.7 µg/mL
CCc1nc(N)nc(N)c1-c1ccc(Cl)c([N+]#N)c1		IC50 [4]: 0.023 µM
CCc1nc(N)nc(N)c1-c1ccc(Cl)c(/N=N/N(C)CC2OCCO2)c1	0.57	Selectivity index [3]: 28

Further lines, with some results ahead:

IC50 [1] [µM]	Compound	also measured
> 11	CCc1nc(N)nc(N)c1-c1ccc(Cl)c(/N=N/N(C(C)(C)C)C(C)(C)C)c1	
1.33	CCc1nc(N)nc(N)c1-c1ccc(Cl)c(N=[N+]=[N-])c1	Selectivity index [3]: 0.5; IC50 [4]: 0.69 µM
14.1	CCc1nc(N)nc(N)c1-c1ccc(Cl)c(/N=N/N(C)CC)c1 [listing 1 of 2 here]	
> 11	CCc1nc(N)nc(N)c1-c1ccc(Cl)c(/N=N/N2CCCC2)c1	
2.8	CCc1nc(N)nc(N)c1-c1ccc(Cl)c(/N=N/N(C)C)c1 [listing 1 of 2 here]	IC50 [4]: 0.31 µM
5	CCc1nc(N)nc(N)c1-c1ccc(Cl)c(/N=N/N2CCc3ccccc3C2)c1	
6.6	CCc1nc(N)nc(N)c1-c1ccc(Cl)c(/N=N/N(C)CC)c1 [listing 2 of 2 here]	
10.6	CCc1nc(N)nc(N)c1-c1ccc(Cl)c(/N=C/N(C)C)c1	IC50 [4]: 1.6 µM
10.2	CCCN(C)/N=N/c1cc(-c2c(N)nc(N)nc2CC)ccc1Cl [listing 1 of 2 here]	
0.57	CCc1nc(N)nc(N)c1-c1ccc(Cl)c(/N=N/N(C)Cc2ccccc2)c1	
40.4	CCc1nc(N)nc(N)c1-c1ccc(Cl)c(/N=N/N2CCCCC2)c1	
7.6	CCCN(C)/N=N/c1cc(-c2c(N)nc(N)nc2CC)ccc1Cl [listing 2 of 2 here]	
8.5	CCc1nc(N)nc(N)c1-c1ccc(Cl)c(/N=N/N2CCN(C)CC2)c1	
6	CCc1nc(N)nc(N)c1-c1ccc(Cl)c(/N=N/N(C)C)c1 [listing 2 of 2 here]	
